Experiment: Example 2 iris, retina, choroid and cornea tissue concentrations
Type: in vivo, male New Zealand White rabbits
Protocol: To measure the concentration of Compound 1 in plasma and ocular tissues following topical ocular, subcutaneous, and intravitreal administration, New Zealand White rabbits were administered Compound 1, and plasma and ocular samples were collected at pre-determined time points. Compound 1 formulations were prepared fresh on each day of dosing.
Ocular tissue samples from both eyes of each animal were collected and weights were recorded. Plasma and ocular tissue sample concentrations of Compound 1 were determined by LC-MS/MS.
Animals were anesthetized for ocular (topical) and intravitreal dosing following the 12IA7 IACUC protocol. Each rabbit received a bolus dose of test formulation either via topical ocular administration 3 times daily on Days 1 and 2 (at 0, 6, and 12 hours), and once on Day 3 (at 0 hours) into both eyes; via intravitreal administration into both eyes once on Day 1 (at 0 hours); or via subcutaneous administration 2 times daily on Days 1 and 2 (at 0 and 8 hours) and once daily on Day 3 (at 0 hours). Doses were given within an approximately 1 hour window each day where applicable.
On Day 1, for intravitreal administration, or on Day 3, for topical ocular and subcutaneous administration, at the appropriate ocular tissue collection time points, animals were euthanized and both eyes were enucleated immediately. Following enucleation, each eye was rinsed with phosphate-buffered saline. Ocular tissue samples from both eyes of each animal were collected at predetermined time points and weights were recorded. All the samples were frozen immediately on dry ice, and stored at −60° C. to −80° C. pending bioanalysis.
An LC-MS/MS method was developed for the determination of Compound 1 in rabbit aqueous tissues (plasma, aqueous and vitreous humor) and solid ocular tissue samples. A pre-study standard curve was analyzed to determine the specificity, range, and lower limit of quantitation of the method. Plasma and tissue homogenate study samples were extracted and analyzed. All the samples were treated identically to the standards.
One eight-point standard curve was used in each analytical batch. To be accepted, each batch must have had at least five of eight standards with accuracy within ±20% of nominal, except at the lower limit of quantification (LLOQ), where ±25% was acceptable.

iris, retina, choroid, cornea concentrations, intravitreal relative to subcutaneous or ocular topical (both test formulations): higher concentrations
persistence of concentrations in all ocular tissues (intravitreal administration of both test formulations): persisted at 72 hours
SMILES: COC(=O)N[C@@H](Cc1ccccc1)C(=O)N[C@@H](Cc1ccc(NS(=O)(=O)O)cc1)c1csc(-c2cccs2)n1 [Compound 1]
